Read-outs that look alike come from different tables or passages of the source.
Columns and labels:
[1] = target: T1, α-Glucosidase (yeast) (Saccharomyces cerevisiae, UniProt P53341); assay: Alpha-glucosidase (yeast) inhibition assay, pH 7.4; format: biochemical
T1 construct: purchased Sigma
Method: (§1) Yeast alpha-glucosidase and almond beta-glucosidase activities were measured by a modification of the method of Evans, et al., Phytochemistry 22, 768-770 (1983). The modifications included (1) assay of activities at pH 7.4 in HEPES (N-2-hydroxyethylpiperazine-N'-2-ethanesulfonic acid) buffer, 2) measurement in 96 well microtiter plates and (3) inclusion of 10% DMSO in control and test samples.
(§2) The release of p-nitrophenol from the substrate p-nitrophenylglycoside was measured spectrophotometrically in the presence and absence of test compound. Each assay included a known inhibitor of the enzyme as a standard. IC50 values were determined for compounds which inhibited the enzymes more than 50% at a 1 millimolar concentration.
(§3) To 100 μl 50 mM HEPES buffer, pH 7.4, in a microtiter plate, add 20 μl test compound in DMSO (DMSO alone in control), 40 μl (0.013 units) yeast alpha-glucosidase (Sigma) in HEPES buffer and pre-incubate at room temperature for 15 minutes. Add 40 μl 1.25 mM p-nitrophenyl-alpha-D-glucopyranoside (Sigma) in HEPES buffer, as substrate, and monitor absorbance change at 405 nm in a Biotek EIA Autoreader. Absorption change was measured at 15 to 25 minutes (reaction was linear for at least 30 minutes). Each sample was tested in triplicate. IC50 values were determined from the linear portion of the log concentration vs % inhibition curve obtained from a minimum of 3 points. Deoxynojirimycin was used as standard inhibitor.

[2] = test system: β-Glucosidase (almond); assay: Beta-glucosidase (almond) inhibition assay, pH 7.4; format: biochemical
Method: as §1, §2
as §3, with “μl (0.136” for “μl (0.013”, “units) beta-glucosidase” for “units) yeast alpha-glucosidase”, “mM p-nitrophenyl-beta-D-glucopyranoside” for “mM p-nitrophenyl-alpha-D-glucopyranoside (Sigma)”, “as substrate” for “as substrate,”, “(reaction is” for “(reaction was”, “points. Castanospermine” for “points. Deoxynojirimycin”

[3] = test system: β-Glucosidase (almond); assay: Beta-glucosidase (almond) inhibitor assay, pH 4.8; format: biochemical
Method: as §1, §2
To 100 μl 50 mM sodium citrate buffer, pH 4.8, in a microtiter plate, add 15 μl test compound in DMSO (DMSO alone in control), 20 μl (0.017 units) beta-glucosidase (Sigma) in citrate buffer and pre-incubate at room temperature for 15 minutes. Add 25 μl 2.50 mM p-nitrophenyl-beta-D-glucopyranoside in citrate buffer, as substrate. Incubate at room temperature 20 minutes (reaction is linear for at least 30 minutes). Add 50 μl 0.4 M NaOH. Read absorption change at 405 nm in a Biotek EIA Autoreader. Each sample was tested in triplicate. IC50 values were determined from the linear portion of the log concentration vs % inhibition curve obtained from a minimum of 3 points. Castanospermine was used as standard inhibitor.

[4] = test system: visna virus; assay: Inhibition of visna virus growth, plaque reduction assay in sheep choroid plexus (SCP) cells (Method A); format: cell-based; conditions: for inhibition at 1000 µM: 1.0 mM
Source text: Inhibitory activity against visna virus was shown by a conventional plaque reduction assay. Visna virus, a lentivirus genetically very similar to the AIDS virus, is pathogenic for sheep and goats. See Sonigo et al., Cell 42, 369-382 (1985); Haase, Nature 322, 130-136 (1986). Inhibition of visna virus replication in vitro as a useful model for HIV and its inhibition by test compounds has been described by Frank et al., Antimicrobial Agents and Chemotherapy 31 (9), 1369-1374 (1987).
Various illustrative compounds synthesized above were tested for inhibition of visna virus in vitro in a plaque reduction assay (Method A) or for inhibition of HIV-1 in a test which measured reduction of cyto-pathogenic effect in virus-infected syncytium-sensitive Leu-3a-positive CEM cells grown in tissue culture (Method B) as follows:
Sheep choroid plexus (SCP) cells were obtained from American Type Culture Collection (ATCC) catalogue number CRL 1700 and were routinely passaged in vitro in Dulbecco's Modified Eagles (DME) medium supplemented with 20% fetal bovine serum (FBS). SCP cells were passaged once per week at a 1:2 or 1:3 split ratio. Visna was titrated by plaque assay in six-well plates. Virus pools were stored at -70° C.
SCP cells were cultured in 6-well plates to confluence. Wells were washed two times with serum free Minimal Essential Medium (MEM) to remove FBS. 0.2 ml of virus was added per well in MEM supplemented with 4 mM glutamine and gentamycin. After 1 hour adsorption, the virus was aspirated from each well. The appropriate concentration of each compound in 5 ml of Medium 199 (M-199) supplemented with 2% lamb serum, 4 mM glutamine, 0.5% agarose and gentamycin was added to each well. Cultures were incubated at 37° C. in a humidified 5% CO2 incubator for 3-4 weeks. To terminate the test, cultures were fixed in 10% formalin, the agar removed, the monolayers stained with 1% crystal violet and plaques counted. Each compound concentration was run in triplicate. […] 0 is no toxicity observed while 4 is total lysing of the cell monolayer. […]
Control wells without virus were completed to determine the toxicity of compounds.

[5] = 100 μM, pH 7.4, read-out: Percent inhibition of α-glucosidase (yeast)
[6] = 1000 μM, pH 7.4, read-out: Percent inhibition of α-glucosidase (yeast)
[7] = pH 7.4, read-out: Percent inhibition of α-glucosidase (yeast)

T1 sequence (P53341 whole entry): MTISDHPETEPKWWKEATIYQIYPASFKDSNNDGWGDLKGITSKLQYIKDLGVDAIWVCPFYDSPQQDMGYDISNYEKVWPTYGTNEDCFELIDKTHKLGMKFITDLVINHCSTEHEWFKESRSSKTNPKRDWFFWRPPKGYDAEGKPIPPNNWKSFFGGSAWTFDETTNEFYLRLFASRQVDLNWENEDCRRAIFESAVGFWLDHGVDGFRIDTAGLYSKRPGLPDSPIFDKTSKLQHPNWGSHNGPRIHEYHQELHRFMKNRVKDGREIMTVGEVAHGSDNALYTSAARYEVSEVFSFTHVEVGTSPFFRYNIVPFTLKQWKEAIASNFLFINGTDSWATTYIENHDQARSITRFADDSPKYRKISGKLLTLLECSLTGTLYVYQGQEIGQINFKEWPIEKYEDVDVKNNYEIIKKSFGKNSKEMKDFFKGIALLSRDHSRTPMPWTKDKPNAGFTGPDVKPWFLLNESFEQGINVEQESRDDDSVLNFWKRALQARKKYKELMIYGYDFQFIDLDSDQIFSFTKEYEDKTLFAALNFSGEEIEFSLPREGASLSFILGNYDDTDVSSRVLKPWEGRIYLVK

SMILES	inhibition at 100 µM [1, 5]	inhibition at 1000 µM [1, 6]	Percent inhibition of β-glucosidase (almond) ([2]; 100 μM)	Percent inhibition of β-glucosidase (almond) ([2]; 1000 μM)	Percent inhibition of β-glucosidase (almond) ([3]; 100 μM)	Percent inhibition of β-glucosidase (almond) ([3]; 1000 μM)	inhibition at 10 µM ([4]; Visna-maedi virus, 0.01 mM)	inhibition at 100 µM ([4]; Visna-maedi virus, 0.1 mM)	further results
CCCCN1C[C@H](Sc2nnnn2C)[C@@H](O)[C@H](O)[C@H]1CO [56(a), 1,5-(Butylimino)-1,5-dideoxy-2-S-(1-methyl-1H-tetrazol-5-yl) 2-thio-D-glucitol]	18.1%	-8.2%	-3.4%	-15.8%	-0.9%	13.7%			
CC(=O)OC[C@@H]1[C@@H](OC(C)=O)[C@H](OC(C)=O)[C@@H](Cl)CN1CCCc1ccccc1 [Example 39, 2-Chloro-1,2,5-trideoxy-1,5-(3-phenyl)propylimino-D-glucitol, triacetate]									inhibition at 0.5 µM ([4]; Visna-maedi virus, 0.0005 mM): 44%; inhibition at 5 µM ([4]; Visna-maedi virus, 0.005 mM): 58%; inhibition at 50 µM ([4]; Visna-maedi virus, 0.05 mM): 98%
CCCCNC(=O)O[C@H]1CN(CCCC)[C@H](CO)[C@@H](O)[C@@H]1O [Example 36]	11%	-6.8%	-2.4%	0.3%	4.3%	3.1%			inhibition at 1000 µM ([4]; Visna-maedi virus): 21%
CCCCN1C[C@H](Cl)[C@@H](OC(C)=O)[C@H](OC(C)=O)[C@H]1COC(C)=O [Example 38, 1,5-(Butylimino)-2-chloro-1,2,5-trideoxy-D-glucitol, triacetate]							61%	86%	inhibition at 1000 µM ([4]; Visna-maedi virus): 97%
CCCCN1C[C@H](OC(=O)OCC(C)C)[C@@H](O)[C@H](O)[C@H]1CO [Example 34, 1,5-(Butylimino)-1,5-dideoxy-D-glucitol, 2-[(2-methylpropyl)-carbonate]]							7%	89%	inhibition at 1 µM ([4]; Visna-maedi virus, 0.001 mM): -2%; inhibition at 1000 µM ([4]; Visna-maedi virus): 100%
CCCCN1C[C@H](OC(=O)Nc2ccccc2)[C@@H](O)[C@H](O)[C@H]1CO [Example 35]							31%	41%	
CCCCN1[C@H](CO)[C@@H](O)[C@H](O)[C@H]1CSc1nnnn1C [56(b), 2,5-(Butylimino)-2,5-dideoxy-1S-(1-methyl-1H-tetrazol-5-yl) 1-thio-D-mannitol]	15.6%	15.7%	-6%	5.7%	7.5%	29.4%			
CCCCN1C[C@H]2O[C@H]2[C@H](OC(C)=O)[C@H]1COC(C)=O [Example 45, 2,3-Anhydro-1,5-(butylimino)-1,5-dideoxy-D-mannitol, diacetate]							5%	44%	inhibition at 1000 µM ([4]; Visna-maedi virus): 85%
CCCCN1C[C@H](C#N)[C@@H](O)[C@H](O)[C@H]1CO [Example 53, 1,5-(Butylimino)-2-cyano-1,2,5-trideoxy-D-glucitol]	20.1%	-29.4%	-4.2%	-7.3%	1.6%	9.5%			
CCCCN1[C@H](CN)[C@@H](O)[C@H](O)[C@H]1CO [Example 48, 1-Amino-2,5-(butylimino)-1,2,5-trideoxy-D-mannitol]	24.6%	60.9%	6.9%	43.1%	9.5%	27.9%			
CCCCN1C[C@H](Cl)[C@@H](OC(=O)CCC)[C@H](OC(=O)CCC)[C@H]1COC(=O)CCC [Example 40, 1,5-(Butylimino)-2-chloro-1,2,5-trideoxy-D-glucitrol, tributyrate]							24%	77%	inhibition at 1 µM ([4]; Visna-maedi virus, 0.001 mM): 0%
CCCCN1[C@H](CO)[C@@H](O)[C@H](O)[C@H]1COC(=O)c1ccccc1 [Example 58, 2,5-(Butylimino)-2,5-dideoxy-D-mannitol, 1-benzoate]	36.2%	44%	-7.5%	13.2%	1.8%	18.6%			
CCCCCCCCCN1C[C@H](Cl)[C@@H](O)[C@H](O)[C@H]1CO [Example 29, 2-Chloro-1,2,5-trideoxy-1,5-(nonylimino)-D-glucitol]			54.7%	91.9%	33.1%	52.8%			% inhibition of visna virus growth ([4]; 0.001 mM): 23%; % inhibition of visna virus growth ([4]; 0.01 mM): 53%; % inhibition of visna virus growth ([4]; 0.1 mM): 100%; inhibition at 1 µM [1, 7]: 11.5%; inhibition at 10 µM [1, 7]: 61.5%; inhibition at 100 µM [1, 7]: 91.8%; inhibition at 1000 µM [1, 7]: 102%
CCCCN(CCCC)C[C@@H]1[C@@H](O)[C@H](O)[C@@H](CO)N1CCCC [Example 49, 2,5-(Butylimino)-1-(dibutylamino)-1,2,5-trideoxy-D-mannitol]	-12.6%	-20.5%	-5.3%	0.2%	10.9%	18.8%			
OC[C@@H]1[C@@H](O)[C@H](O)[C@@H](Cl)CN1Cc1ccccc1 [Example 32, 2-Chloro-1,2,5-trideoxy-1,5-(phenylmethyl)imino-D-glucitol]							-3%	28%	inhibition at 1 µM ([4]; Visna-maedi virus, 0.001 mM): 12%
CCCCN1[C@H](CO)[C@@H](O)[C@H](O)[C@H]1CC#N [Example 54, 3,6-(Butylimino)-2,3,6-trideoxy-D-manno-heptanonitrile]	23.5%	22.6%	-7.8%	-7.9%	0.1%	4.1%			
CCCCN1[C@H](CO)[C@@H](O)[C@H](O)[C@H]1CNC(C)=O [Example 51, 1-(Acetylamino)-2,5-(butylimino)-1,2,5-trideoxy-D-mannitol]	27.1%	39.3%	-3.8%	4.4%	6%	26%			
